Each block holds one compound with its values, some of them ahead of it. Activity calls are given as the source filed them.
How the values were obtained:
[1] = Counterscreen for inhibitors of Trypanosoma brucei methionyl tRNA synthetase (MetRS): Luminescence-based cell-based high throughput dose response assay to identify compounds that are cytotoxic to Jurkat human T lymphocyte cells.; assay type: functional
[2] = target: T1, Methionyl-tRNA synthetase, putative (Trypanosoma brucei brucei, UniProt Q38C91); assay type: functional, Trypanosoma brucei brucei strain 927/4 GUTat10.1
T1 sequence (Q38C91 whole entry): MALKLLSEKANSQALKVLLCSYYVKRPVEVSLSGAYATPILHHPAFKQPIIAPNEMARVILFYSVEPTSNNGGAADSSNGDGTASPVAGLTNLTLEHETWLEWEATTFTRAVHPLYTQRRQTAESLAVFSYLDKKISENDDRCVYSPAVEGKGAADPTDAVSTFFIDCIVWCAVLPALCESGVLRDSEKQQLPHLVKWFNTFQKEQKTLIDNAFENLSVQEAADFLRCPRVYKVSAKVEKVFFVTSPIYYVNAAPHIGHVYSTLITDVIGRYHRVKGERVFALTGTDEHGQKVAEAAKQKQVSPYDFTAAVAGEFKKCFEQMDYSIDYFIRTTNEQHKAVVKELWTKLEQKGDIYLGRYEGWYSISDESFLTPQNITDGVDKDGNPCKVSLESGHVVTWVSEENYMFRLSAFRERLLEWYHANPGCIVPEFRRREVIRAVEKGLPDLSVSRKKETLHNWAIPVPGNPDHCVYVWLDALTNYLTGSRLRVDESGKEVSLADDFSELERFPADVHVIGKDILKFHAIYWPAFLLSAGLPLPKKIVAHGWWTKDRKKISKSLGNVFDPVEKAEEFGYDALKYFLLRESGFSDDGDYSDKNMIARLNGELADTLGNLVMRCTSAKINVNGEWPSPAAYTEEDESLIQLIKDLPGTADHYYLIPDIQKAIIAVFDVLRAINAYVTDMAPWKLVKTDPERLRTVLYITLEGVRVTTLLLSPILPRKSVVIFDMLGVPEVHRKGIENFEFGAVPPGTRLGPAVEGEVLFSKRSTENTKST

[3] = target: T1, Methionyl-tRNA synthetase, putative; assay type: functional, Trypanosoma brucei brucei strain 927/4 GUTat10.1; remark: listed apart in the source
Caspase-3 = target: T2, Caspase-3 (Homo sapiens, UniProt P42574); assay type: functional;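 further: Dose-response selectivity test against caspase-3 for candidate inhibitors of sentrin-specific proteases (SENPs)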
T2 sequence (P42574 whole entry): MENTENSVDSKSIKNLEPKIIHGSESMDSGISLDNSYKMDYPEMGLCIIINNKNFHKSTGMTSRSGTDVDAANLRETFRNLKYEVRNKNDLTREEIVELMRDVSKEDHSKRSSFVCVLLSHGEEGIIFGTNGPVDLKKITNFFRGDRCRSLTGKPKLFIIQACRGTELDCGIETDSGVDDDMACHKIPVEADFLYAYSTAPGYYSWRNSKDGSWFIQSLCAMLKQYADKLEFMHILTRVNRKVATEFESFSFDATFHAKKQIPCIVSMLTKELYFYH

[4] = target: T3, Sentrin-specific protease 7 (Homo sapiens, UniProt Q9BQF6); assay type: functional;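 further: Luminescence-based dose-response confirmation of ultra-high-throughput screening hits, measuring inhibition of SENP7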
T3 sequence (Q9BQF6 whole entry): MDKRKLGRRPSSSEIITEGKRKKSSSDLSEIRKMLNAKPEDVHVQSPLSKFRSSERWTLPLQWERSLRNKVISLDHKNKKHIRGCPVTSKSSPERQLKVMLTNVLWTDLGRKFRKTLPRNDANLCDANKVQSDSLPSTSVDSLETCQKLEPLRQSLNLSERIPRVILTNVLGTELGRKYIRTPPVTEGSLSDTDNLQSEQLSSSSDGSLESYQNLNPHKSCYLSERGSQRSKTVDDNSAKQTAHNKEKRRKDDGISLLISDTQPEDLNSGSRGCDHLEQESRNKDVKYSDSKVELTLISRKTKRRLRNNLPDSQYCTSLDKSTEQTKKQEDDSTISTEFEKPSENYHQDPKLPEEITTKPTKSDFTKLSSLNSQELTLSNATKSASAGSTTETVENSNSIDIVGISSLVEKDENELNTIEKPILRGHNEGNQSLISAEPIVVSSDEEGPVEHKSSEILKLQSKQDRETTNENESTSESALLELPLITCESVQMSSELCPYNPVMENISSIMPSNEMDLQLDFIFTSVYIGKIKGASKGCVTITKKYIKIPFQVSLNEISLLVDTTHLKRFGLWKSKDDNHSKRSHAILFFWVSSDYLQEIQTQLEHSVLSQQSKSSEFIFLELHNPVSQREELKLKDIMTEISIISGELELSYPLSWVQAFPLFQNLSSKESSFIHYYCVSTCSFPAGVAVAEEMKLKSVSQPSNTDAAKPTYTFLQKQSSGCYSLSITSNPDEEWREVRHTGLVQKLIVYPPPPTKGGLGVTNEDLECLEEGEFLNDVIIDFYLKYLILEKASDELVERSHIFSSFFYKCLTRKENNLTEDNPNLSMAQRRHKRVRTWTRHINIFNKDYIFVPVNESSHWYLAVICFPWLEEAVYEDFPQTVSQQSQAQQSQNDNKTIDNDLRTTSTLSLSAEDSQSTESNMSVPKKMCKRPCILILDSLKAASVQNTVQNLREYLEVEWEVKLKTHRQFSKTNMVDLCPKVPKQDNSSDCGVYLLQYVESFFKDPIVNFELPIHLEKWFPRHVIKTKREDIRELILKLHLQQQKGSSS

[5] = target: T4, Sentrin-specific protease 8 (Homo sapiens, UniProt Q96LD8); assay type: functional
T4 sequence (Q96LD8 whole entry): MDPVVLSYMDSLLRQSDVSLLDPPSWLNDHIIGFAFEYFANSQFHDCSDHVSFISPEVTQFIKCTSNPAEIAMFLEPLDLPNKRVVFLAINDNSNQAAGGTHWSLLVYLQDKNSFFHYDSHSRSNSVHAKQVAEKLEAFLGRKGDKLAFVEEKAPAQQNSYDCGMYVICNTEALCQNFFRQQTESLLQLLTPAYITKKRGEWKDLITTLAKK

[6] = target: T4, Sentrin-specific protease 8; assay type: functional; remark: listed apart in the source
Caspase-6 = target: T5, Caspase-6 (Homo sapiens, UniProt P55212); test: inhibition of CASP6 peptide cleavage – biochemical, VEID-R110 fluorescence, cherry-pick, dose response (AID 720632)
T5 sequence (P55212 whole entry): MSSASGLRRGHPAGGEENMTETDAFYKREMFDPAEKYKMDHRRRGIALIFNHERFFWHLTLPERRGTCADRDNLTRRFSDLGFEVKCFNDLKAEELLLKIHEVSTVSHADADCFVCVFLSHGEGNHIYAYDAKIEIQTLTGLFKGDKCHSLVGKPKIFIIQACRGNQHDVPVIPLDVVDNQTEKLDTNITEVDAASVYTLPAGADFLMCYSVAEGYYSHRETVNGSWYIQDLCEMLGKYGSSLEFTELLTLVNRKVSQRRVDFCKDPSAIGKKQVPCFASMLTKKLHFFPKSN

[7] = target: T6, Sentrin-specific protease 6 (Homo sapiens, UniProt Q9GZR1); assay type: functional;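 further: Luminescence-based dose-response confirmatory assay of SENP6 inhibition, following up an ultra-high-throughput screen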
T6 sequence (Q9GZR1 whole entry): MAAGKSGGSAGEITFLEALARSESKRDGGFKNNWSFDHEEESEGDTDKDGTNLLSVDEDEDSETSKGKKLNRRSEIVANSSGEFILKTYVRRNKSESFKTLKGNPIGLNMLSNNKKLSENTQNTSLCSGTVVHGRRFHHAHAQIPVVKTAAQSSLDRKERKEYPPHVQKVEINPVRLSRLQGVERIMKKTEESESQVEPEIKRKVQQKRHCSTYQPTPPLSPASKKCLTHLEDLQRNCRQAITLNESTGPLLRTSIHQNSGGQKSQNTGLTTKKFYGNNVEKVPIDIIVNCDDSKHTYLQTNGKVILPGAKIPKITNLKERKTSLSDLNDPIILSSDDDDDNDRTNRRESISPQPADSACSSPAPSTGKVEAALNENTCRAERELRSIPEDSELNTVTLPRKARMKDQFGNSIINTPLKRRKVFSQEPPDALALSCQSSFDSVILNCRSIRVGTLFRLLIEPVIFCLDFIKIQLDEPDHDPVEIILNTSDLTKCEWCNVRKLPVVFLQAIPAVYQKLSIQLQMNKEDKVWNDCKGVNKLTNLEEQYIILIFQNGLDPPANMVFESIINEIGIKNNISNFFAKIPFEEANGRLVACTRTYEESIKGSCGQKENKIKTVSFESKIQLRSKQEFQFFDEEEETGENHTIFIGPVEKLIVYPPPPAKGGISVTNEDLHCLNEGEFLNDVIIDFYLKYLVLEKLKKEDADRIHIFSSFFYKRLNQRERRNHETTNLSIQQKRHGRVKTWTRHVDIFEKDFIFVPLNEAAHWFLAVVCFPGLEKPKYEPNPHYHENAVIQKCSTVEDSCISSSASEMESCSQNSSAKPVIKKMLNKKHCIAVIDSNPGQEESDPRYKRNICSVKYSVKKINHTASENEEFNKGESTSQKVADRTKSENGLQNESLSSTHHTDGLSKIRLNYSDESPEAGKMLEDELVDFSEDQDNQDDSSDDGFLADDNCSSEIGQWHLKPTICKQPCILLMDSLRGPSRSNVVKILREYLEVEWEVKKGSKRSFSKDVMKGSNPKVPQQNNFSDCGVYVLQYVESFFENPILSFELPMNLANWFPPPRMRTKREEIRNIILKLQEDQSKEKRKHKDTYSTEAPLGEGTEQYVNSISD

[8] = target: T4, Sentrin-specific protease 8; assay type: functional; remark: listed apart in the source
[9] = Luminescence Cell-Based Dose Retest to Confirm Inhibitors of Cancer Stem Cells. [Related pubchem assays (depositor defined):AID2717, AID2721]; assay type: functional; settings: Homo sapiens
[10] = target: T7, Heat shock factor protein 1 (Mus musculus, UniProt P38532); test: enhancement of HSF1-driven luciferase signal – cell-based, NIH3T3, luminescence, dose retest, confirmation (AID 435004); assay type: functional;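 further: stress induced by proteasome inhibitor MG132 added 30 min after compound; luciferase reporter driven by HSF1 response element in NIH3T3 cells; actives raise luminescence as potentiators of the MG132 stress response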
T7 sequence (P38532 whole entry): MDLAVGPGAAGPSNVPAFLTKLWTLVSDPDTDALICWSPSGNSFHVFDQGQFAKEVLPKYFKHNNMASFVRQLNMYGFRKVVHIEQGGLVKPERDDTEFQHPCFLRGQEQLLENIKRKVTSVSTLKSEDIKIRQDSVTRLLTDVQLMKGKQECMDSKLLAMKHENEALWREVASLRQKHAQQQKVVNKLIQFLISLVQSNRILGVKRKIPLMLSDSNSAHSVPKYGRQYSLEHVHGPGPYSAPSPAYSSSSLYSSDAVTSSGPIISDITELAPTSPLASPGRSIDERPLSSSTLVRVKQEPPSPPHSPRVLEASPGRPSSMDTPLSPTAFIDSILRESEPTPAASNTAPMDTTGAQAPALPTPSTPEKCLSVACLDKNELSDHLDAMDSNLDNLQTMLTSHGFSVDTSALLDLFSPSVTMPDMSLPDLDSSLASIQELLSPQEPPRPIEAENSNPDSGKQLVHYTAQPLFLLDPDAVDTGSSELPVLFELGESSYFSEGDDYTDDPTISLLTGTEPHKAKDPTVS

[11] = viability loss in HEK293T cells – cell-based, cherry-picks, cytotoxicity control for HIV Vif inhibitor project, dose response (AID 652208); assay type: functional
[12] = Counterscreen for activators of the function of SWI/SNF related, matrix associated, actin dependent regulator of chromatin, subfamily a, member 2 (SMARCA2, BRM): Luminescence-based cell-based high throughput dose response assay to identify non-selective compounds using the VP16 reporter assay.; assay type: functional
[13] = target: SWI/SNF-related matrix-associated actin-dependent regulator of chromatin subfamily A member 2 (Homo sapiens, UniProt P51531); test: Luminescence-based cell-based high throughput dose response assay to identify activators of the function of SWI/SNF related, matrix associated, actin dependent regulator of chromatin, subfamily a, member 2 (SMARCA2, BRM).; assay type: functional
Chain of SWI/SNF-related matrix-associated actin-dependent regulator of chromatin subfamily A member 2 (P51531 whole entry): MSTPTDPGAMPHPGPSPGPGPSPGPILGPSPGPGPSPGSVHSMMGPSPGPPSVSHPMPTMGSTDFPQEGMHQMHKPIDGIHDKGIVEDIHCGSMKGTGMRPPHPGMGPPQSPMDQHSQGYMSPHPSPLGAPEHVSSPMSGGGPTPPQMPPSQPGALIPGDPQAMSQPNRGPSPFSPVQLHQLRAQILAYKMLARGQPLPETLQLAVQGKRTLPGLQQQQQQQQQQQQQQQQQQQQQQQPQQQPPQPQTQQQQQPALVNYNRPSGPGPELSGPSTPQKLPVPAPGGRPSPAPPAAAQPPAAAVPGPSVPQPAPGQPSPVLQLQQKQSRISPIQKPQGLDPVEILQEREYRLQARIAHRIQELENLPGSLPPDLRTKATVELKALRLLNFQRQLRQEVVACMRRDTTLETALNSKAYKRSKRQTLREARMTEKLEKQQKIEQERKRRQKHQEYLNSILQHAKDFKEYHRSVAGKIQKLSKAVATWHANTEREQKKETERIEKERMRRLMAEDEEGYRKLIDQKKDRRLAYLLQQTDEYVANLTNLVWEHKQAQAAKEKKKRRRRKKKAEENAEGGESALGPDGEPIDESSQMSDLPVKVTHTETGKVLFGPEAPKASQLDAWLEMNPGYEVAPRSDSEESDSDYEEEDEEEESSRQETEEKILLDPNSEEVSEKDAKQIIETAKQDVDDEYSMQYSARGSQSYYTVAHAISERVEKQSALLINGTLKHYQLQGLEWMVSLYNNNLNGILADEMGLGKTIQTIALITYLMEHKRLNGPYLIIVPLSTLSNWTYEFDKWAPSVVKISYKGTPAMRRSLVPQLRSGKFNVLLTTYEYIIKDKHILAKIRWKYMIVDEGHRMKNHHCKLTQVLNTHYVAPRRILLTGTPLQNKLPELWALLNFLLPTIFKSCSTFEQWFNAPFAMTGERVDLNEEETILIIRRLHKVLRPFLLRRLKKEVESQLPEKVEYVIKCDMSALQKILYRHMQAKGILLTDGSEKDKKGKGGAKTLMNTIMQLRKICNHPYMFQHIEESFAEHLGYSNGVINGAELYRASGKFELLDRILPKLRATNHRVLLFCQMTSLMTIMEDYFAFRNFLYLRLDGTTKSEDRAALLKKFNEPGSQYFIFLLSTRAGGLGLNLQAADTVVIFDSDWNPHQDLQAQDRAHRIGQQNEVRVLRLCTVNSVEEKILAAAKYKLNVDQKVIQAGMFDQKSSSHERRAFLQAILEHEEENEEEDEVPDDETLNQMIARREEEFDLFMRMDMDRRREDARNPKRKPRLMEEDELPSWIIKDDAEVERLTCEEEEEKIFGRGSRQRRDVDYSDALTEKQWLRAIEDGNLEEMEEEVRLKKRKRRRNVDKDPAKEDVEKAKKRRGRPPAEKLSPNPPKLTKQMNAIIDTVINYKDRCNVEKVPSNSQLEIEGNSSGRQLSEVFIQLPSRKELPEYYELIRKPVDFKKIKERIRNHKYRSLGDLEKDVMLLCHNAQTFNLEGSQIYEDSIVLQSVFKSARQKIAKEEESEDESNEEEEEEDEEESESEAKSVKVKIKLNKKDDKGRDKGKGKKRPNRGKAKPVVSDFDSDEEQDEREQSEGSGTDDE

[14] = cytotoxicity in HEK293 background cells – cell-based, dry powder, set 2, counter-screen for EBV LMP1 inhibitor project, dose response (AID 624374); assay type: functional
[15] = target: 5-hydroxytryptamine receptor 2A (Mus musculus, UniProt P35363); assay type: functional, cell-based;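 further: CHO-K1 cells with tagged receptor and beta-arrestin; agonist potency measured as compound-induced activation of the receptor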
Chain of 5-hydroxytryptamine receptor 2A (P35363 whole entry): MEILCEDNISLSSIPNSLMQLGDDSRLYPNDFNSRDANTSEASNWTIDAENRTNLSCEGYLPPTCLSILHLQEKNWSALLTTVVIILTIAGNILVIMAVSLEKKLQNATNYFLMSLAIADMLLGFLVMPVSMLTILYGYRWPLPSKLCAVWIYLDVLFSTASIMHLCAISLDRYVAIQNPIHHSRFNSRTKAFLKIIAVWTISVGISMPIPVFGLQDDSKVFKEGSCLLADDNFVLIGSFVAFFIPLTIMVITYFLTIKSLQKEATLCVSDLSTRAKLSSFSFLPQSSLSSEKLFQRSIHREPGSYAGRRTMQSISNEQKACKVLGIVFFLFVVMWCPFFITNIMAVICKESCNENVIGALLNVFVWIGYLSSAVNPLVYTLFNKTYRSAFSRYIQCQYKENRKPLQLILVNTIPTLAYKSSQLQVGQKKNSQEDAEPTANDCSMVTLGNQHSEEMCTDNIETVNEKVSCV

Mu-type opioid receptor = Mu-type opioid receptor (Homo sapiens, UniProt P35372); assay type: functional, cell-based;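 further: U2OS cells with beta-arrestin recruitment to OPRM1 by beta-gal complementation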
Chain of Mu-type opioid receptor (P35372 whole entry): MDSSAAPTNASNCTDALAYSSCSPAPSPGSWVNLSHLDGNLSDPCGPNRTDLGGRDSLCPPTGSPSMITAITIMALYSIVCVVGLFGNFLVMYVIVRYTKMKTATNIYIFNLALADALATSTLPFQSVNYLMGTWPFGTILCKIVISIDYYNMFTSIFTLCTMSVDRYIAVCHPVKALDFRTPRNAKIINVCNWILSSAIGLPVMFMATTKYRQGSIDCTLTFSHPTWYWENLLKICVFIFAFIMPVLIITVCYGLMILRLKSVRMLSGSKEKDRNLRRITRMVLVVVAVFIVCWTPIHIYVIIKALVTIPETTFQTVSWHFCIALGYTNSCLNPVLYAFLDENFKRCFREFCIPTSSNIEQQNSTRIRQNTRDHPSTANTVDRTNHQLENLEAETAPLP

Structure (SMILES): Brc1ccc2[nH]c3c(NCc4ccccn4)ncnc3c2c1
IC50 [1]: 83.3 µM (inactive)
IC50 [2]: 5.71 µM (active)
IC50 [3]: 3.47 µM (active)

IC50 (Caspase-3): 2.67 µM (active)
IC50 [4]: 1.79 µM (active)
AC50 (Caspase-6): 11.1 µM (active)
IC50 [7]: < 1.55 µM (active)
Structure (SMILES): O=C1OC(Nc2cc(Br)cc3cccnc23)c2ccccc21 (stereo not given)
IC50 [5]: 1.63 µM (active)
IC50 [6]: > 100 µM (inactive)
IC50 [8]: 8.4 µM (active)

Structure (SMILES): O=C(COC(=O)/C=C/C(=O)OCC(=O)Nc1ccccc1F)Nc1ccccc1F
AC50 [9]: 7.02 µM (active)
EC50 [10]: 11.1 µM (active)
AC50 [11]: 44.3 µM (active)

Structure (SMILES): CC(C)(C)CC(=O)O/N=C(\N)c1ccccn1
EC50 [12]: > 91.1 µM (inactive)
EC50 [13]: > 91.1 µM (inactive)

Structure (SMILES): N#CCn1cnc2sc(-c3ccccc3)cc2c1=O
EC50 [12]: > 91.2 µM (inactive)
EC50 [13]: > 91.2 µM (inactive)

Structure (SMILES): N#C[C@H]1[C@@H](c2ccc(-c3cccnc3)cc2)[C@@H](CO)N1C(=O)Nc1ccc(F)cc1
AbsAC35 [14]: 162.11 µM

Structure (SMILES): Oc1nc(CSc2ncc(C(F)(F)F)cc2Cl)nc2ccccc12
IC50 [1]: 35.7 µM (inactive)
IC50 [2]: 14.4 µM (inactive)
IC50 [3]: 5.35 µM (active)

EC50 [15]: 0.0105 µM (active)
EC50 (Mu-type opioid receptor): 92.5 µM (inactive)
Structure (SMILES): CC12CCC(C(=O)N(CCCCN3CCN(c4ccccn4)CC3)C1=O)C2(C)C (stereo not given)

EC50 [15]: 0.965 µM (active)
EC50 (Mu-type opioid receptor): 92.5 µM (inactive)
Structure (SMILES): CCOc1ccc(CN2CCN(C(=O)c3ccco3)CC2)cc1
